These results are taken from US6613875B1, “Cyclic peptide tube” (The Scripps Research Institute, priority 1993, dated 2003).

The experiment can be described thus: Proton transport (collapse of pH gradient) in vesicles with entrapped 5(6)-carboxyfluorescein. In kind it is biochemical. To be noted: vesicles pH 6.5 inside, pH 5.5 outside. From the text:
The proton efflux is expressed in terms of the fractional change in the fluorescence intensity of vesicle entrapped 5(6)-carboxyfluorescein as a function of time (sampling time was at 0.3 seconds interval). Equal molar amounts of channel forming compounds were used in each experiment to allow direct comparisons of channel-mediated proton transport activity. The amount of added channel forming compounds in each experiment ranged from of 2 to 20 nmoles corresponding to approximately 150 channels per liposome for the lowest concentrations to 1100 channels per liposome for the highest amount of added compounds.
Formation of transmembrane channels was also inferred from its highly efficient proton transport activity. Vesicles were prepared having pH 6.5 inside and pH 5.5 in the outside bulk solution. The collapse of the imposed pH gradient in these vesicles, upon formation of the putative transmembrane channel structure, was studied by monitoring the fluorescence intensity of an entrapped pH-sensitive dye. (V.E. Carmichael et al, in J.Am. Chem. Soc. (1989), vol. 111, pages 767-769). […] Unilamellar vesicles were prepared by the reverse-phase evaporation using DPPC, OPPC, cholestrol in the ratio of 1:1:2 in a solution containing 5(6)-carboxyfluorescein (20 mM in phosphate/saline buffer: 137 mM NaCl, 2.6 mM KCl, 6.4 mM Na2HPO4, 1.4 mM KH2PO4, pH 6.5) according to the method of F. Szoka et al. in Proc. Natl. Acad. Sci. USA (1978), vol. 75, pages 4194-4198. […] Vesicles formed in this way are approximately 150 nanometer in diameter as determined by electron microscopy. […] To the cuvett, through an injector port, […] of the channel forming compounds in DMSO was added with continuous fluorescence monitoring at 520 nm (excitation at 470 nm). The observed data were then normalized for comparison into the fractional change in fluorescence ((I0−It)/(I0−I∞)) (V. E. Carmichael et al, in J.Am. Chem. Soc. (1989), vol. 111, pages 767-769)). […]

Square brackets hold non-standard residues; d marks the D form.

Turning to “cyclo[-(Trp-D-Leu)3-Gln-D-Leu-] (cyclo(W[dL]W[dL]W[dL]Q[dL]); SMILES CC(C)C[C@H]1NC(=O)[C@H](CCC(N)=O)NC(=O)[C@@H](CC(C)C)NC(=O)[C@H](Cc2c[nH]c3ccccc23)NC(=O)[C@@H](CC(C)C)NC(=O)[C@H](Cc2c[nH]c3ccccc23)NC(=O)[C@@H](CC(C)C)NC(=O)[C@H](Cc2c[nH]c3ccccc23)NC1=O) [eight residue ion channel forming cyclic peptide, approximately 7.5 Å pore]”, the “collapse of the imposed pH gradient upon addition of peptide” value is “rapid collapse of the pH gradient”.
